Test results published in patent US20240417435A1, “DEFENSIN-DERIVED PEPTIDE WITH ANTIBACTERIAL ACTIVITY ALSO AGAINST MULTI-ANTIBIOTIC-RESISTANT BACTERIA” (priority 2021, published 2024).
In brackets after ≈: the same amount, converted by molar mass. Like-named read-outs stand apart in the source and are kept apart here. Where a SMILES comes first, the peptide text is derived from it. Bridges are numbered along the chain shown (N, C = ends).

Tests used:
MRSA strain 1 = type: cell-based, Staphylococcus aureus
Method: (§1) The antimicrobial activity of peptide γ2 was evaluated versus Pseudomonas aeruginosa ATCC 27853, Escherichia coli ATCC 13762 and Staphylococcus aureus ATCC 6538, and versus multidrug-resistant (MDR) clinical isolates of Methicillin-Resistant Staphylococcus aureus (MRSA), extended-spectrum β-lactamase (ESBL)-producing E. coli, P. aeruginosa and Acinetobacter baumannii complex. The isolates were identified by mass spectrometry using the MALDI (matrix-assisted laser desorption/ionisation) mass spectrometer and the biochemical phenotyping method in a VITEKR 2 bioMérieux system (bioMérieux Italia S.p.a., Bagno a Ripoli, Florence, Italy), according to the manufacturer's instructions. The antibiotic susceptibility profile was evaluated with the VITEKR 2 bioMérieux System. The microorganisms were cultured in broth and agar at 37° C. The media used were BD Brain Heart Infusion broth (BHI) (BD, Franklin Lakes, NJ, USA) and BHI agar (OXOID, Basingstoke, Hampshire, UK), BD Trypticase Soy agar with 5% sheep's blood and MacConkey agar (OXOID, Basingstoke, Hampshire, UK). The isolates were stored frozen at −80° C. in BHI broth supplemented with 10% (v/v) glycerol (Carlo Erba Reagents, Milan, Italy) until use, and the work cultures were activated in the respective broths at 37° C. for 15-18 h.
(§2) Assays of the antibacterial activity of peptide γ2, in both reduced and oxidised form, were conducted against P. aeruginosa ATCC 27853, E. coli ATCC 13762, S. aureus ATCC 6538 and MDR clinical isolates. The strains were cultured under aerobic conditions in BHI broth at 37° C. and incubated with peptide γ2 for 2 hours at 37° C. Various concentrations of peptide were used, ranging from 1 μM to 128 μM. Each test was conducted in triplicate with three independent cultures. The minimum inhibitory concentration (MIC) and the minimum bactericidal concentration (MBC) of the peptide were determined with a modified version of the Clinical and Laboratory Standards Institute broth microdilution assay, using a final inoculum concentration of 10^5 CFU/ml, as previously described (Scudiero O et al., Antimicrob Agents Chemother 2010; 54:2312-22; Scudiero O et al. Antimicrob Ag Chemother 2013; 57:1701-8).
(§3) The MIC is indicated by the concentration interval, which comprise the upper growth limit and the first concentration which could not support visible bacterial growth after incubation. The MBC was defined as the lowest concentration at which no viable colonies were observed. The peptide concentrations were 128.0, 64.0, 32.0, 16.0, 8.0, 4.0, 2.0 and 1 μM. For the time-kill studies against the ATCC and MDR strains, the bacteria were cultured in BHI broth until the late log growth phase at 37° C. The bacterial suspensions, containing about 10^6 CFU/ml (adjusted by the spectrophotometer to OD600 nm), were diluted 1:100 in PBS1× and then incubated at 37° C. with or without the peptide, selected at concentrations corresponding to 1, 2 and 4×MIC (as determined above). At baseline and 1, 2, 3 and 5 hours after incubation, a portion of each sample was harvested, diluted in series in PBS1× and seeded on BHI agar. The plates were incubated for […] at 37° C., and the viable bacteria count was conducted by the CFU method. All the data were expressed as mean±SD of three independent experiments.

MRSA strain 2 = type: cell-based, Staphylococcus aureus
Method: as §1, §2, §3

MRSA strain 3 = type: cell-based, Staphylococcus aureus
Method: as §1, §2, §3

S. aureus ATCC 6538 = type: cell-based, Staphylococcus aureus
Method: as §1, §2, §3

E. coli ATCC 13762 = type: cell-based, Escherichia coli
Method: as §1, §2, §3

E. coli ESBL strain 1 = type: cell-based, Escherichia coli
Method: as §1, §2, §3

E. coli ESBL strain 2 = type: cell-based, Escherichia coli
Method: as §1, §2, §3

P. aeruginosa ATCC 27853 = type: cell-based, Pseudomonas aeruginosa
Method: as §1, §2, §3

[1] = test system: P. aeruginosa MDR strain 1; type: cell-based, Pseudomonas aeruginosa
Method: as §1, §2, §3

[2] = test system: P. aeruginosa MDR strain 2; type: cell-based, Pseudomonas aeruginosa
Method: as §1, §2, §3

[3] = test system: A. baumannii MDR strain 1; type: cell-based, Acinetobacter baumannii complex
Method: as §1, §2, §3

[4] = test system: A. baumannii MDR strain 2; type: cell-based, Acinetobacter baumannii complex
Method: as §1, §2, §3

A549 cells = assay: Cell migration assay in Boyden chambers; type: cell-based; conditions: 10 nM, 4 h
Method: (§4) Cell migration assays were conducted as previously described (Bifulco K et al., Mol Cancer There 2013; 2:1981-93), using Boyden chambers and polyvinylpyrrolidone-free polycarbonate filters with 8 μm pores inserted between a lower and upper compartment. Briefly, the cell suspension (1×10^5 viable cells/mL of serum-free medium) was seeded in each upper chamber. The lower chambers were filled with DMEM only, DMEM containing 10 nM N-formyl-methionyl-leucylphenylalanine peptide (fMLF), as positive control, or increasing peptide γ2 concentration. Incubation was conducted for 4 h at 37° C. in air humidified with 5% CO2. At the end of the assay, the cells on the lower surface of the filter were fixed with ethanol and stained with haematoxylin, and 10 random fields/filter were counted with a 200× magnification. The extent of cell migration was expressed as a percentage of baseline cell migration evaluated in the absence of chemo-attractants, taken as 100% (CTRL).

HT-1080 cells = assay: Cell migration assay in Boyden chambers; type: cell-based; conditions: 10 nM, 4 h
Method: as §4

HUVEC endothelial cells = assay: Cell migration assay in Boyden chambers; type: cell-based; conditions: endothelial cells (HUVEC); 10 nM; 4 h
Method: as §4

Compound CC[C@H](C)[C@@H]1NC(=O)[C@H](CCC(N)=O)NC(=O)[C@H](CCCNC(=N)N)NC(=O)[C@H](CCCNC(=N)N)NC(=O)[C@H](CCCCN)NC(=O)[C@@H]2CCCN2C(=O)[C@H](CC(C)C)NC(=O)[C@@H](NC(C)=O)CSSC[C@@H](C(=O)N[C@@H](CCCCN)C(=O)N[C@@H](CCCCN)C(N)=O)NC(=O)[C@H](CO)NC(=O)[C@H](CCCCN)NC(=O)[C@H](CCCNC(=N)N)NC(=O)CNC(=O)[C@H](CCCNC(=N)N)NC(=O)[C@H]([C@@H](C)O)NC(=O)[C@H](CO)NC(=O)[C@H](CO)NC(=O)[C@H](CCCCN)NC(=O)CNC1=O [Oxidised peptide γ2] (Ac-CLPKRRQIGKSSTRGRKSCKK-NH2; disulfide 1-19 (inferred)) has an MBC (MRSA strain 1) of 2 µM (≈ 4.91 µg/mL), an MIC (MRSA strain 1) of 1 µM (≈ 2.46 µg/mL) and an MBC (MRSA strain 2) of 16 µM (≈ 39.3 µg/mL). The MIC (MRSA strain 2) was 2 µM (≈ 4.91 µg/mL), the MBC (MRSA strain 3) was 32 µM (≈ 78.6 µg/mL) and the MIC (MRSA strain 3) was 2 µM (≈ 4.91 µg/mL). For the same compound, the MBC (S. aureus ATCC 6538) was 8 µM (≈ 19.7 µg/mL), the MBC (E. coli ATCC 13762) was 1 µM (≈ 2.46 µg/mL) and the MIC (E. coli ATCC 13762) was 1 µM (≈ 2.46 µg/mL). For the same compound, the MBC (E. coli ESBL strain 1) was 2 µM (≈ 4.91 µg/mL), the MIC (E. coli ESBL strain 1) was 2 µM (≈ 4.91 µg/mL) and the MBC (E. coli ESBL strain 2) was 32 µM (≈ 78.6 µg/mL). The MIC (E. coli ESBL strain 2) was 1 µM (≈ 2.46 µg/mL), the MBC (P. aeruginosa ATCC 27853) was 4 µM (≈ 9.83 µg/mL) and the MBC [1] was 32 µM (≈ 78.6 µg/mL). The MBC [2] was 32 µM (≈ 78.6 µg/mL), the MIC [2] was 1 µM (≈ 2.46 µg/mL) and the MBC [3] was 128 µM (≈ 314 µg/mL). It also gave an MBC ([4]; MDR strain 2) of 4 µM (≈ 9.83 µg/mL), an MIC ([4]; MDR strain 2) of 4 µM (≈ 9.83 µg/mL) and an MIC ([4]; multidrug-resistant clinical strain 2 of A. baumannii) of 4 µM (≈ 9.83 µg/mL).

With “N-formyl-methionyl-leucylphenylalanine peptide [fMLF, reference compound]” the “cell migration, % of the baseline cell migration” value (“cell migration, %” below) (A549 cells) was 153%, the “cell migration, %” value (HT-1080 cells) was 167% and the “cell migration, %” value (HUVEC endothelial cells) was 166%.
